This series can be described thus: phase 1 first-in-human trial, food effect study (FES) PK. Type of series: in vivo. Conditions: for AUC(0-t) / Cmax / half-life / Tmax: 150 mg; for half-life: read-out: T1/2 (geometric mean) (converted). The procedure: Anle138b was studied in a single-centre, double-blind, randomised, placebo-controlled single ascending dose (SAD) and multiple ascending dose (MAD) study in healthy subjects. Eligible participants were randomly assigned (1:1 for sentinel subjects and 1:5 for main group) to placebo or anle138b (dose ranging from 50 mg to 300 mg per day), respectively. In addition, the effect of food on the pharmacokinetics (PK) of anle138b in healthy subjects was examined at doses of 150 mg per day (FES, food effect study). Participants were randomized to treatment sequence (fed→fasted) or (fasted→fed). Treatment for the SAD, MAD and FES arms of the study was administered orally in hard gelatin capsules containing either 10 mg or 30 mg of anle138b with excipient (i.e., lauroyl polyoxyl-32 glycerides) or excipient only. The primary endpoints were safety and tolerability, the secondary endpoint was pharmacokinetics. Data from all randomized individuals were evaluated. [Clinicaltrials.gov-identifier: NCT04208152. EudraCT-number: 2019-004218-33]
This dose was administered either i) after a standard FDA-approved high-fat breakfast or ii) in the fasted state, i.e., fasted from all food and drink (except water) for a minimum of 8 h prior to dosing. In total, one cohort of 12 subjects was randomised in a 1:1 ratio to 2 treatment sequences (fed→fasted) or (fasted→fed). A minimum washout of at least 5 half-lives of anle138b between each dose was assured.
Secondary outcome measures were the oral PK of single (SAD) and multiple (MAD) ascending doses of anle138b in the fasted state as well as the effect of co-administration with food on the PK of anle138b. To this end PK blood samples were taken at day 1 (and for MAD day 7) pre-dose and at 0.5, 1, 1.5, 2, 3, 4, 6, 8, 10, 12, 16 and 20 h post-administration, at days 2 to 6 pre-dose only (MAD) and 24, 30, 36 and 48 h post final dose. Analysis of anle138b in plasma was done at Aptuit. Time point of last quantifiable data was seen to increase with an increase in dose as follows: SAD: from the 50 mg dose (subjects ranged between 8-24 h) to the 300 mg dose (subjects ranged between 36-48 h). MAD: from the 100 mg dose (subjects ranged between 8-36 h) to the 300 mg dose (subjects ranged between 20-48 h). In FES, subjects ranged between 24-48 h.
where μ=[…] is the intercept and β is the slope from the linear model. Using this model it is possible to estimate β (measure of dose proportionality) and obtain 90% confidence interval (CI) for β (Gough, 1995; Smith, 2000). The estimate of β together with its 90% CI (βI, βu) was used to quantify the degree of non-proportionality. In MAD, formal statistical analysis was performed on the PK parameters AUC0-tau and Cmax to assess dose accumulation. Log-transformed AUC0-tau and Cmax was subjected to a mixed-effects model with treatment (dose level), day (day 1 or 7) and treatment-by-day interaction as fixed effects and subject as a random effect. The adjusted means obtained from the model, including differences for each comparison of interest and the associated 90% CIs, was back-transformed on the log scale to obtain adjusted geometric means, adjusted geometric mean ratios (GMRs) and 90% CIs of the ratio. The GMRs and 90% CIs were provided for each treatment and overall, i.e., day 7/day 1. In the FES, formal statistical analysis was performed on the PK parameters Cmax, AUC0-last and AUC0-24 to assess the effects of food on anle138b. The PK parameters underwent a natural logarithmic transformation and were analysed using a mixed-effect model with terms for treatment (i.e., prandial state), period and sequence as fixed effects and subject nested within sequence as a random effect. Adjusted GMRs and 90% CIs for the adjusted GMRs for the comparison between fed and fasted states were provided where the ratios are defined as fed/fasted.

Read-outs that look alike come from different tables or passages of the source.

Consider `Brc1cccc(-c2cc(-c3ccc4c(c3)OCO4)n[nH]2)c1` [anle138b, 3-(1,3-benzodioxol-5-yl)-5-(3-bromophenyl)-1H-pyrazole], for which the “effect of food on Cmax (in words)” value (150 mg single dose, fed vs fasted) was “decreased by about half”. Moreover, the AUC(0-t) is, setting by setting: (human, plasma, oral, 150 mg single dose, fasted, read-out: AUC0-24 range) 433 to 2720 ng·h/mL; (human, plasma, oral, 150 mg single dose, fed, read-out: AUC0-24 range) 378 to 1920 ng·h/mL; (human, plasma, po, healthy volunteers, single oral 150 mg, fasted, read-out: AUC(0-24) (geometric mean)) ~896 ng·h/mL; (human, plasma, po, healthy volunteers, single oral 150 mg, fasted, read-out: AUC(0-last) (geometric mean)) 888 ng·h/mL; (human, plasma, po, healthy volunteers, single oral 150 mg, fed, read-out: AUC(0-24) (geometric mean)) ~641 ng·h/mL; (human, plasma, po, healthy volunteers, single oral 150 mg, fed, read-out: AUC(0-last) (geometric mean)) 668 ng·h/mL. For the same compound, the Cmax was 225 to 1420 ng/mL (human, plasma, oral, 150 mg single dose, fasted, read-out: Cmax range); 110 to 479 ng/mL (human, plasma, oral, 150 mg single dose, fed, read-out: Cmax range); ~442 ng/mL (human, plasma, po, healthy volunteers, single oral 150 mg, fasted, read-out: Cmax (geometric mean)); ~196 ng/mL (human, plasma, po, healthy volunteers, single oral 150 mg, fed, read-out: Cmax (geometric mean)). Moreover, the bioavailability (human, plasma, oral, 150 mg single dose, 90% CI: 61%, 84%, read-out: dose bioavailable in the fed state compared to the fasted state) is ~74%. For the same compound, the half-life was 11.3 h (human, plasma, po, healthy volunteers, single oral 150 mg, fasted) and 15.2 h (human, plasma, po, healthy volunteers, single oral 150 mg, fed). The Tmax reads like this: (human, plasma, po, healthy volunteers, single oral 150 mg, fasted, read-out: Tmax (median)) 1.25 h; (human, plasma, po, healthy volunteers, single oral 150 mg, fasted, read-out: Tmax (range)) 1 to 2 h; (human, plasma, po, healthy volunteers, single oral 150 mg, fed (high-fat breakfast), read-out: Tmax (median)) 3 h; (human, plasma, po, healthy volunteers, single oral 150 mg, fed (high-fat breakfast), read-out: Tmax (range)) 1.5 to 3 h. The “ratio of fasted AUC(0-24) to fed AUC(0-24)” value (single dose, healthy subject) was “less than 1.5”.
